We go through 42 compounds from US20260015357A1, “MODULATORS OF NLRP3 INFLAMMASOME AND RELATED PRODUCTS AND METHODS” (Neumora Therapeutics, Inc., priority 2022, published 2026).

Experiment [1] concerns IL-6. The experiment in a line: IL-6 in supernatants of LPS-primed, nigericin-treated THP1 macrophages, Hu IL-6 AlphaLISA. Particulars: Homo sapiens, THP-1, PMA-differentiated, 1 hr compound, Nigericin 6.7 uM 3 hrs, IL-6 in supernatant. In kind it is cell-based. The protocol:
(§1) NLRP3 Inflammasome Activation and Cell Viability Assessment in THP1 Macrophages
(§2) THP1—Human acute monocytic leukemia cells were cultured (ATCC, cat #TIB-202) in Gibco RPMI-1640 medium (ThermoFisher cat #72400054) supplemented with 10% Heat Inactivated FBS at density between 3-8×10^5 viable cells/mi. The cells were then subcultured when the cell concentration reached 8×10^5 cells/mL (every 2-3 days).
(§3) The parameter wells were filled with 50 ul PBS and incubated at 37° C., 5% CO2 for 48 hrs.
(§4) After 48 hrs incubation, the PMA containing media was removed, and changed for 40 ul/well of fresh DMEM, 10% FBS, 1× GlutaMax and incubated at 37° C., 5% CO2 for 24 hrs.
(§5) The following day the cells were primed with LPS (E. coli) (Sigma, cat #L3129) […] in DMEM, 10% FBS, 1× GlutaMax for 3 hrs at 37° C., 5% CO2.
(§6) Following the LPS priming step, the cells were treated with compounds at 10 uM top final concentration, 1:4 dilution, 8 times: (10 uM, 2.5 uM, 0.625 uM, 0.156 uM, 0.039 uM, 0.0097 uM, 0.0024 uM, 0.0006 uM). DMSO was used as a vehicle control, and MCC950 (InvivoGen, cat #inh-mcc) was used at 1 uM as a positive control, and incubated for 1 hrs at 37° C., 5% CO2.
(§7) Following the 1 hr compound incubation, the NLRP3 inflammasome activation step was conducted by treating cells with Nigericin (InvivoGen, cat #tlrl-nig) at 6.7 uM final concentration for 3 hrs at 37° C., 5% CO2.
(§8) Thereafter, 30 ul samples of cells' supernatants were collected for cytokine analysis which was conducted on Hu IL-1β AlphaLISA (Perkin Elmer, cat #AL220C) and Hu IL-6 AlphaLISA (Perkin Elmer, cat #AL220C). The cells' viability was assessed by performing CellTiter-Glo Luminescent Assay (Promega, cat #G7572) according to the manufacturer's protocol.
(Bead proximity is the source of the signal in Alpha formats.)

Experiment [2] has as its target T1, NLRP3 inflammasome (Homo sapiens, UniProt Q96P20).
T1 construct: host or cells: THP1 human acute monocytic leukemia cells, PMA-differentiated, LPS-primed
Put plainly: NLRP3 inflammasome activation in LPS-primed, nigericin-activated THP1 macrophages, IL-1β AlphaLISA. In kind it is cell-based. Particulars: PMA-differentiated, 1 hr compound, Nigericin 6.7 uM 3 hrs, IL-1β in supernatant. The protocol: as §1, §2, §3, §4, §5, §6, §7, §8

In general, IC50 refers to the concentration at which inhibition is half-maximal.

T1 sequence (Q96P20 whole entry): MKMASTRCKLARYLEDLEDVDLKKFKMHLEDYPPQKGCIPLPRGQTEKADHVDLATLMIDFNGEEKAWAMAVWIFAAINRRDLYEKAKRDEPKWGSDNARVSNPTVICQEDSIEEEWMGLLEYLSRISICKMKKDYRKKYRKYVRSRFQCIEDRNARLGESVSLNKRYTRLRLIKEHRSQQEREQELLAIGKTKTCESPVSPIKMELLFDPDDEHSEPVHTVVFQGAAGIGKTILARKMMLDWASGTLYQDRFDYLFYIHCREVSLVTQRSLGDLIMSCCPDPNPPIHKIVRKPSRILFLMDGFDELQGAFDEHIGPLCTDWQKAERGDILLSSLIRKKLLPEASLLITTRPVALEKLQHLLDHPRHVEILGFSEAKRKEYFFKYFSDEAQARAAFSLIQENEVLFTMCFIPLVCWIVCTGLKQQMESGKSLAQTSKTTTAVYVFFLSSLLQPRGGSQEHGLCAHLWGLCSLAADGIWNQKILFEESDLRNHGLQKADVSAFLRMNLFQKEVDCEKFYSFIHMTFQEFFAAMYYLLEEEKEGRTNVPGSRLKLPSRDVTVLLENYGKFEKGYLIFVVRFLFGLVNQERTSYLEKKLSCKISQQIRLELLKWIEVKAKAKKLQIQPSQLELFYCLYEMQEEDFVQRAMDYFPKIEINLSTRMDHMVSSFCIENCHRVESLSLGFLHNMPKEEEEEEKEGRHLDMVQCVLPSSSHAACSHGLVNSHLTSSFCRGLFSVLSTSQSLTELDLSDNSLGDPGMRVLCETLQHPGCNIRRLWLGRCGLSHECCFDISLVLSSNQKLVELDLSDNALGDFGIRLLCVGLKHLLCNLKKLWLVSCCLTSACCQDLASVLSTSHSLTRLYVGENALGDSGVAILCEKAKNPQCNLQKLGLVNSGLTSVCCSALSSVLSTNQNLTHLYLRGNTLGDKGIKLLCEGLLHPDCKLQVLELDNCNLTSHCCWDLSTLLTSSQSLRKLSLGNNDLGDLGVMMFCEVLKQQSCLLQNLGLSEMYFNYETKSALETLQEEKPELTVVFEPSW

In the case of `CN1CCC[C@@H](Nc2nnc(-c3ncc(C#N)cc3O)c3cnn(C)c23)C1` [Compound 111], the values for the 50% inhibitory concentration (IC50) in experiment [1] and in experiment [2] were no less than 10 µM and 0.1 to 0.5 µM, respectively.

As for `Cc1cc(C#N)ccc1-c1nnc(N[C@@H]2CCCN(C)C2)c2c1cnn2C` [Compound 112], the IC50 was no less than 10 µM in experiment [1] and 0.01 to 0.1 µM in experiment [2].

On to `Cc1cc(C#N)cc(O)c1-c1nnc(N[C@@H]2CCCN(C)C2)c2c1cnn2C` [Compound 115], for which the IC50 is no less than 10 µM in experiment [1] and less than 0.01 µM in experiment [2].

Regarding `CN1CCC[C@@H](Nc2nnc(-c3ccc(C#N)cc3C(F)F)c3cnn(C)c23)C1` [Compound 117], the figures for the concentration for half-maximal inhibition (IC50) in experiment [1] and in experiment [2] were no less than 10 µM and 0.1 to 0.5 µM, respectively.

Regarding `CN1CCC[C@@H](Nc2nnc(-c3ccc(Cl)cc3C(F)F)c3cnn(C)c23)C1` [Compound 118], the half-inhibitory concentration (IC50) is no less than 10 µM in experiment [1] and 0.01 to 0.1 µM in experiment [2].

In the case of `CN1CCC[C@@H](Nc2nnc(-c3ccc(C(F)(F)F)cc3C(F)F)c3cnn(C)c23)C1` [Compound 119], the results for the IC50 in experiment [1] and in experiment [2] were no less than 10 µM and 0.01 to 0.1 µM, respectively.

Regarding `CN1CCC[C@@H](Nc2nnc(-c3ccc(Cl)cc3C(F)F)c3ccn(C)c23)C1` [Compound 121], the IC50 is no less than 10 µM in experiment [1] and 0.01 to 0.1 µM in experiment [2].

Regarding `Cc1cc(C(F)(F)F)ccc1-c1nnc(N[C@@H]2CCCN(C)C2)c2c1ccn2C` [Compound 123], the half-inhibitory concentration (IC50) is 1 to 5 µM in experiment [1] and less than 0.01 µM in experiment [2].

As to `CN1CCC[C@@H](Nc2nnc(-c3ccc(C#N)cc3Cl)c3ccn(C)c23)C1` [Compound 124], the half-inhibitory concentration (IC50) was no less than 10 µM in experiment [1] and 0.1 to 0.5 µM in experiment [2].

As for `Cc1cc(C#N)cc(C)c1-c1nnc(N[C@@H]2CCCN(C)C2)c2c1ccn2C` [Compound 126], the IC50 in experiment [1] and in experiment [2] was no less than 10 µM throughout.

For `Cc1cc(C#N)cc(O)c1-c1nnc(N[C@@H]2CCCN(C)C2)c2c1ccn2C` [Compound 127], the IC50 was 5 to 10 µM in experiment [1] and less than 0.01 µM in experiment [2].

On to `CN1CCC[C@@H](Nc2nnc(-c3ccc(C(F)(F)F)cn3)c3ccn(C)c23)C1` [Compound 129], for which the figures for the IC50 in experiment [1] and in experiment [2] were no less than 10 µM and 0.1 to 0.5 µM, respectively.

Regarding `CN1CCC[C@@H](Nc2nnc(-c3ncc(C(F)(F)F)cc3Cl)c3ccn(C)c23)C1` [Compound 131], the IC50 in experiment [1] was no less than 10 µM; in experiment [2], 0.01 to 0.1 µM.

As for `Cc1cc(C#N)cnc1-c1nnc(N[C@@H]2CCCN(C)C2)c2c1ccn2C` [Compound 132], the concentration for half-maximal inhibition (IC50) was no less than 10 µM in experiment [1] and 1 to 10 µM in experiment [2].

Regarding `CN1CCC[C@@H](Nc2nnc(-c3ccc(C(F)(F)F)cn3)c3cnn(C)c23)C1` [Compound 136], the IC50 in experiment [1] is 1 to 5 µM; in experiment [2], 0.1 to 0.5 µM.

On to `Cc1cc(C(F)(F)F)cnc1-c1nnc(N[C@@H]2CCCN(C)C2)c2c1cnn2C` [Compound 137], for which the results for the concentration for half-maximal inhibition (IC50) in experiment [1] and in experiment [2] were no less than 10 µM and 0.01 to 0.1 µM, respectively.

For the compound `Cc1cc(C#N)cnc1-c1nnc(N[C@@H]2CCCN(C)C2)c2c1cnn2C` [Compound 139], the half-inhibitory concentration (IC50) in experiment [1] and in experiment [2] was no less than 10 µM each time.

Consider `Cc1cc(C(F)(F)F)cc(O)c1-c1nnc(N[C@@H]2CCCN(C)C2)c2c1ccn2C` [Compound 143], for which the IC50 in experiment [1] was no more than 1 µM; in experiment [2], less than 0.01 µM.

Regarding `CN1CCC[C@@H](Nc2nnc(-c3ccc(C#N)cc3O)c3cnsc23)C1` [Compound 144], the half-maximal inhibitory concentration (IC50) in experiment [1] was no less than 10 µM; in experiment [2], less than 0.01 µM.

For `CN1C[C@H](Nc2nnc(-c3ccc(C#N)cc3O)c3ccn(C)c23)CC(F)(F)C1` [Compound 145], the IC50 in experiment [1] and in experiment [2] was no less than 10 µM each time.

Regarding `Cn1ccc2c(-c3ccc(C#N)cc3O)nnc(N[C@@H]3CCCN(C4CC4)C3)c21` [Compound 146], the figures for the concentration for half-maximal inhibition (IC50) in experiment [1] and in experiment [2] were no less than 10 µM and 0.01 to 0.1 µM, respectively.

Regarding `Cn1ccc2c(-c3ccc(C#N)cc3O)nnc(N[C@@H]3CCCN(CCO)C3)c21` [Compound 147], the half-inhibitory concentration (IC50) is no less than 10 µM in experiment [1] and less than 0.01 µM in experiment [2].

As to `Cn1ccc2c(-c3ccc(C#N)cc3O)nnc(N[C@@H]3CCCN(CCF)C3)c21` [Compound 148], the IC50 in experiment [1] is no less than 10 µM; in experiment [2], 0.01 to 0.1 µM.

Consider `Cn1ccc2c(-c3ccc(C#N)cc3O)nnc(N[C@H]3CN(CCF)CC(F)(F)C3)c21` [Compound 149], for which the 50% inhibitory concentration (IC50) in experiment [1] and in experiment [2] was no less than 10 µM each time.

Turning to `N#Cc1ccc(-c2nnc(N[C@@H]3CCCN(CCO)C3)c3sncc23)c(O)c1` [Compound 151], the figures for the IC50 in experiment [1] and in experiment [2] were no less than 10 µM and less than 0.01 µM, respectively.

For `Cn1ccc2c(-c3ccc(C#N)cc3O)nnc(N[C@@H]3CCCN(CC(C)(C)O)C3)c21` [Compound 152], the IC50 in experiment [1] is no less than 10 µM; in experiment [2] it was 0.01 to 0.1 µM.

Take `COCCN1CCC[C@@H](Nc2nnc(-c3ccc(C#N)cc3O)c3ccn(C)c23)C1` [Compound 153]: the results for the concentration for half-maximal inhibition (IC50) in experiment [1] and in experiment [2] were no less than 10 µM and 0.01 to 0.1 µM, respectively.

Regarding `COCCN1CCC[C@@H](Nc2nnc(-c3ccc(C#N)cc3O)c3cnsc23)C1` [Compound 154], the IC50 in experiment [1] was no less than 10 µM; in experiment [2], 0.01 to 0.1 µM.

Take `CNCCN1CCC[C@@H](Nc2nnc(-c3ccc(C#N)cc3O)c3ccn(C)c23)C1` [Compound 155]: the half-maximal inhibitory concentration (IC50) in experiment [1] was no less than 10 µM; in experiment [2] it was 0.1 to 0.5 µM.

Take `CN(C)CCN1CCC[C@@H](Nc2nnc(-c3ccc(C#N)cc3O)c3ccn(C)c23)C1` [Compound 156]: the values for the IC50 in experiment [1] and in experiment [2] were no less than 10 µM and 0.01 to 0.1 µM, respectively.

With `CN1CCC[C@@H](Nc2nnc(-c3ccc(C#N)cc3O)c3c(Cl)cn(C)c23)C1` [Compound 157], the IC50 in experiment [1] was no less than 10 µM; in experiment [2] it was 0.1 to 0.5 µM.

On to `Cn1ccc2c(-c3ccc(C#N)cc3O)nnc(N[C@@H]3CCCNC3)c21` [Compound 158], for which the 50% inhibitory concentration (IC50) in experiment [1] was in the range of 5 to 10 µM; in experiment [2], 0.01 to 0.1 µM.

Turning to `Cn1ccc2c(-c3ccc(C(F)(F)F)cc3)nnc(N[C@@H]3CCCN(S(C)(=O)=O)C3)c21` [Compound 159], the figures for the concentration for half-maximal inhibition (IC50) in experiment [1] and in experiment [2] were no less than 10 µM and 1 to 10 µM, respectively.

Consider `Cn1ccc2c(-c3ccc(C#N)cc3O)nnc(N[C@@H]3CCCN(C4COC4)C3)c21` [Compound 160], for which the figures for the IC50 in experiment [1] and in experiment [2] were no less than 10 µM and 1 to 10 µM, respectively.

For `Cn1ccc2c(-c3ccc(C#N)cc3O)nnc(N[C@@H]3CCCN(c4ccccc4)C3)c21` [Compound 161], the IC50 in experiment [1] and in experiment [2] was no less than 10 µM throughout.

`Cn1ccc2c(-c3ccc(C#N)cc3O)nnc(N[C@@H]3CCCN(c4ccncc4)C3)c21` [Compound 162]: the half-maximal inhibitory concentration (IC50) in experiment [1] is no less than 10 µM; in experiment [2], 1 to 10 µM.

For the compound `Cn1ccc2c(-c3ccc(C#N)cc3O)nnc(N[C@@H]3CCCN(c4cccnc4)C3)c21` [Compound 163], the IC50 in experiment [1] and in experiment [2] was no less than 10 µM each time.

Turning to `Cn1ccc2c(-c3ccc(C#N)cc3O)nnc(N[C@@H]3CCCN(CCN)C3)c21` [Compound 164], the IC50 in experiment [1] is no less than 10 µM; in experiment [2], 0.1 to 0.5 µM.

Consider `CN1CCC[C@@H](Nc2nnc(-c3ncc(C#N)cc3O)c3cc(Cl)n(C)c23)C1` [Compound 165], for which the concentration for half-maximal inhibition (IC50) in experiment [1] was no less than 10 µM; in experiment [2] it was less than 0.01 µM.

As for `CN1CCC[C@@H](Nc2nnc(-c3ncc(C(F)(F)F)cc3O)c3cnn(C)c23)C1` [Compound 166], the IC50 was no less than 10 µM in experiment [1] and 0.01 to 0.1 µM in experiment [2].

Turning to `COc1cc(C)ccc1-c1nnc(N[C@@H]2CCCN(C)C2)c2c1cnn2C` [Compound 167], the concentration for half-maximal inhibition (IC50) in experiment [1] is no less than 10 µM; in experiment [2], 1 to 10 µM.

Turning to `CN1CCC[C@@H](Nc2nnc(-c3ncc(C(F)(F)F)cc3O)c3ccn(C)c23)C1` [Compound 168], the values for the 50% inhibitory concentration (IC50) in experiment [1] and in experiment [2] were no less than 10 µM and 1 to 10 µM, respectively.
